Measured values taken from ChEMBL document CHEMBL5678818, “Discovery of potent SOS1 inhibitors that block RAS activation via disruption of the RAS-SOS1 interaction” (Proc Natl Acad Sci U S A, 2019).

Tests used:
[1] = target: Activin receptor type-1-like (Homo sapiens) (UniProt P37023); experiment: Inhibition of ACVRL1 (unknown origin) assessed as residual activity at 1000 nM by KINOMEscan analysis relative to control
[2] = target: T1, Calcium/calmodulin-dependent protein kinase type IV (Homo sapiens) (UniProt Q16566); experiment: Inhibition of CAMK4 (unknown origin) assessed as residual activity at 1000 nM by KINOMEscan analysis relative to control
T1 sequence (whole entry): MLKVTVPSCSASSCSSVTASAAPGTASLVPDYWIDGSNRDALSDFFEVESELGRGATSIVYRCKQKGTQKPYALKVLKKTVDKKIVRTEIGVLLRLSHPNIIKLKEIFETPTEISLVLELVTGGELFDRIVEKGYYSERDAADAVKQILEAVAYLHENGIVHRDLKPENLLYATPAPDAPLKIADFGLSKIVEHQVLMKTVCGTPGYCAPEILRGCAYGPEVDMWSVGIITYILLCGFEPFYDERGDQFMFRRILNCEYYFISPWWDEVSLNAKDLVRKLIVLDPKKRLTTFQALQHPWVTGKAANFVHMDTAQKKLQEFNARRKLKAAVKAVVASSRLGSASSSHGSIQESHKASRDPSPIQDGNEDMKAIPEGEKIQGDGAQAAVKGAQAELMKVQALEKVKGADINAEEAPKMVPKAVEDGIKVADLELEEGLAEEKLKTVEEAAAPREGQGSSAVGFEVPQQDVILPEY

[3] = target: Cyclin-dependent kinase 8 (Homo sapiens) (UniProt P49336); experiment: Inhibition of CDK8 (unknown origin) assessed as residual activity at 1000 nM by KINOMEscan analysis relative to control
[4] = target: Casein kinase I isoform alpha (Homo sapiens) (UniProt P48729); experiment: Inhibition of CSNK1A1 (unknown origin) assessed as residual activity at 1000 nM by KINOMEscan analysis relative to control
[5] = target: Mitogen-activated protein kinase 3 (Homo sapiens) (UniProt P27361); experiment: Inhibition of ERK1 (unknown origin) assessed as residual activity at 1000 nM by KINOMEscan analysis relative to control
[6] = target: Vascular endothelial growth factor receptor 3 (Homo sapiens) (UniProt P35916); experiment: Inhibition of FLT4 (unknown origin) assessed as residual activity at 1000 nM by KINOMEscan analysis relative to control
[7] = target: Tyrosine-protein kinase JAK2 (Homo sapiens) (UniProt O60674); experiment: Inhibition of JAK2 JH1 catalytic domain (unknown origin) assessed as residual activity at 1000 nM by KINOMEscan analysis relative to control
[8] = target: MAP kinase-interacting serine/threonine-protein kinase 1 (Homo sapiens) (UniProt Q9BUB5); experiment: Inhibition of MKNK1 (unknown origin) assessed as residual activity at 1000 nM by KINOMEscan analysis relative to control
[9] = target: Mitogen-activated protein kinase kinase kinase 11 (Homo sapiens) (UniProt Q16584); experiment: Inhibition of MLK3 (unknown origin) assessed as residual activity at 1000 nM by KINOMEscan analysis relative to control
[10] = target: Serine/threonine-protein kinase 38-like (Homo sapiens) (UniProt Q9Y2H1); experiment: Inhibition of NDR2 (unknown origin) assessed as residual activity at 1000 nM by KINOMEscan analysis relative to control
[11] = test system: Proto-oncogene tyrosine-protein kinase receptor Ret (Homo sapiens), P07949 [M918T]; experiment: Inhibition of RET M918T mutant (unknown origin) assessed as residual activity at 1000 nM by KINOMEscan analysis relative to control
[12] = target: Serine/threonine-protein kinase 16 (Homo sapiens) (UniProt O75716); experiment: Inhibition of STK16 (unknown origin) assessed as residual activity at 1000 nM by KINOMEscan analysis relative to control
[13] = target: Activated CDC42 kinase 1 (Homo sapiens) (UniProt Q07912); experiment: Inhibition of TNK2 (unknown origin) assessed as residual activity at 1000 nM by KINOMEscan analysis relative to control
[14] = target: T2, Dual specificity protein kinase TTK (Homo sapiens) (UniProt P33981); experiment: Inhibition of TTK (unknown origin) assessed as residual activity at 1000 nM by KINOMEscan analysis relative to control
T2 sequence (whole entry): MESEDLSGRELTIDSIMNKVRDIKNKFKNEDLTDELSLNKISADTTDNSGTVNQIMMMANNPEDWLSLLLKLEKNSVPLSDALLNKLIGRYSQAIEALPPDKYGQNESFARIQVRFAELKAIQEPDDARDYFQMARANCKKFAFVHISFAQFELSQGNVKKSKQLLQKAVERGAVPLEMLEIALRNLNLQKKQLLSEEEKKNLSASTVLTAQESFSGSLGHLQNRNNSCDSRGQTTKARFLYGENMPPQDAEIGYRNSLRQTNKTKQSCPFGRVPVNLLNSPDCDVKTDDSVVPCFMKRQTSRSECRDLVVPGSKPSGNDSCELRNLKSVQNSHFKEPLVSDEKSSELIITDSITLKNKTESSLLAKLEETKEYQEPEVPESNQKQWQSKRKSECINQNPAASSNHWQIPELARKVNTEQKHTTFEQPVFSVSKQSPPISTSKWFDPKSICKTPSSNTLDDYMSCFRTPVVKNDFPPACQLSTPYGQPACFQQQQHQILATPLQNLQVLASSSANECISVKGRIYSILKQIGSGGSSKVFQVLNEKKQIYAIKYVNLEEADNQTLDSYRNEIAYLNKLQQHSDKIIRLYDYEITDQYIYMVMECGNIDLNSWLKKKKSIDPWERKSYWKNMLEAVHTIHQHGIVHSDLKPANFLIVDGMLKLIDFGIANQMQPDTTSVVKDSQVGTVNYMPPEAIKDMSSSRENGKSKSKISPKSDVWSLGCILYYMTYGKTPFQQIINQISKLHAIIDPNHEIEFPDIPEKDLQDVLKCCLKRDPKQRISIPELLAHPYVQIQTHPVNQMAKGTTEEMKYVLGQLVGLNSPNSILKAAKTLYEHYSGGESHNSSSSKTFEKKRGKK

[15] = target: Serine/threonine-protein kinase 4 (Homo sapiens) (UniProt Q13043); experiment: Inhibition of MST1 (unknown origin) assessed as residual activity at 1000 nM by KINOMEscan analysis relative to control
Serine/threonine-protein kinase 4 (Homo sapiens), sequence (Q13043 whole entry, looked up): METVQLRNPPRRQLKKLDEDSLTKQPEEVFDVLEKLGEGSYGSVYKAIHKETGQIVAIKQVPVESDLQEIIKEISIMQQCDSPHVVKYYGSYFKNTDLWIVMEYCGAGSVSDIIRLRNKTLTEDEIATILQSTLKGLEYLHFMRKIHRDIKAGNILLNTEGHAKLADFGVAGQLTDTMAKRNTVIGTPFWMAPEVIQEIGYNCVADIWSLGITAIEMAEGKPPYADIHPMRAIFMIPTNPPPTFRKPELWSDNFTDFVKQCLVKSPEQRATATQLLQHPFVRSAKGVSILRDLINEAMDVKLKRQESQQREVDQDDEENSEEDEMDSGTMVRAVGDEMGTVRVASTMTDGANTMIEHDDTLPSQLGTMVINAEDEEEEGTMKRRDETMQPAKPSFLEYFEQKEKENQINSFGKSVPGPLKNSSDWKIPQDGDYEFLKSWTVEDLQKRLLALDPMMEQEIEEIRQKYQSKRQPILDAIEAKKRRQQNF

Vascular endothelial growth factor receptor 3 (Homo sapiens), sequence (P35916 whole entry, the tested form may be a part): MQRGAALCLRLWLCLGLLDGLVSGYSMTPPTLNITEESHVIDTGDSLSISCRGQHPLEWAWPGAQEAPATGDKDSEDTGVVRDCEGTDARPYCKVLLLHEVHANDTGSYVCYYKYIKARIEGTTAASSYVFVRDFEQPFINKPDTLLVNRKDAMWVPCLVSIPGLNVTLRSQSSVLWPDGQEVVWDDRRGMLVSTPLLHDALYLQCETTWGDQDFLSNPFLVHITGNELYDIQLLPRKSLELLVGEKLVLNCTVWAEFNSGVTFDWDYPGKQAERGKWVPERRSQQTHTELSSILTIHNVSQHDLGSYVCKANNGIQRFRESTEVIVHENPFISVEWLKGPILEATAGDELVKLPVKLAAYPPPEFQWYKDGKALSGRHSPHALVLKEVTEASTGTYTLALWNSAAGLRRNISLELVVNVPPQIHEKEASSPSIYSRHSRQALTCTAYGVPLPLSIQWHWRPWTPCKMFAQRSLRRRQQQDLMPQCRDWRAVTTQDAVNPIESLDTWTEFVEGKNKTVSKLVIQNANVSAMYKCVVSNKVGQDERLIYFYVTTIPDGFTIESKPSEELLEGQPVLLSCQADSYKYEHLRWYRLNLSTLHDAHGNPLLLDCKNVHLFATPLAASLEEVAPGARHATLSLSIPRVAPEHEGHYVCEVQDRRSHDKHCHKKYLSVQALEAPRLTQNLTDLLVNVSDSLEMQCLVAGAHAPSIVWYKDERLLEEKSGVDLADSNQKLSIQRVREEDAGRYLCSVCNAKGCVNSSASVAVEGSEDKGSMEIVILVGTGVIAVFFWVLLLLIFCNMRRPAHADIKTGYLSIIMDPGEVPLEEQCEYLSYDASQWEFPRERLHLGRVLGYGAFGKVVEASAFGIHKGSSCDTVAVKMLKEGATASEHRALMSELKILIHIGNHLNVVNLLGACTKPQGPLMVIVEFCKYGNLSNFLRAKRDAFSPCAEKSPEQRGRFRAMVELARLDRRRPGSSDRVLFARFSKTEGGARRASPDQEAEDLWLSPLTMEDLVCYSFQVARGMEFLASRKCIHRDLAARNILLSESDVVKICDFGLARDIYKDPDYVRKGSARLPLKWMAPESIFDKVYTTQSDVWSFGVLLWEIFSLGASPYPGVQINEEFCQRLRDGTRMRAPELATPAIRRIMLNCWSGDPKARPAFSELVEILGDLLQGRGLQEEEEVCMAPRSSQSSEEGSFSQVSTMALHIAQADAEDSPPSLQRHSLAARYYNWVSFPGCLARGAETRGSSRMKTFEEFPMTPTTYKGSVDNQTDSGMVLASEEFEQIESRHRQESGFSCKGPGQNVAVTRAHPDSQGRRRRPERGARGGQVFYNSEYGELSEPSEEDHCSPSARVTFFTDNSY
Serine/threonine-protein kinase 38-like (Homo sapiens), sequence (Q9Y2H1 2-464 limits assumed): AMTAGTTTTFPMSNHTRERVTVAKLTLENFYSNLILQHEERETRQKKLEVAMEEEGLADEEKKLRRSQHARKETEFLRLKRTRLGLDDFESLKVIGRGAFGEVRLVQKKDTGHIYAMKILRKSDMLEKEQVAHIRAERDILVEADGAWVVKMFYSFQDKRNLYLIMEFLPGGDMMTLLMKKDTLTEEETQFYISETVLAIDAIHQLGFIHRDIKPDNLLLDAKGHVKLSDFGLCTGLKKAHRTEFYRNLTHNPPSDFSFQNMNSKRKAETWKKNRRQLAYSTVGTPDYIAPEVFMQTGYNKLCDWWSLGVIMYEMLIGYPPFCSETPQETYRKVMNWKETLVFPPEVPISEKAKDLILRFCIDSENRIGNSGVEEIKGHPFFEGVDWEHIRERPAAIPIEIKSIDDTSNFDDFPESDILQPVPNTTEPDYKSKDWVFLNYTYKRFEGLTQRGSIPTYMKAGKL
Tyrosine-protein kinase JAK2 (Homo sapiens), sequence (O60674 whole entry, the tested form may be a part): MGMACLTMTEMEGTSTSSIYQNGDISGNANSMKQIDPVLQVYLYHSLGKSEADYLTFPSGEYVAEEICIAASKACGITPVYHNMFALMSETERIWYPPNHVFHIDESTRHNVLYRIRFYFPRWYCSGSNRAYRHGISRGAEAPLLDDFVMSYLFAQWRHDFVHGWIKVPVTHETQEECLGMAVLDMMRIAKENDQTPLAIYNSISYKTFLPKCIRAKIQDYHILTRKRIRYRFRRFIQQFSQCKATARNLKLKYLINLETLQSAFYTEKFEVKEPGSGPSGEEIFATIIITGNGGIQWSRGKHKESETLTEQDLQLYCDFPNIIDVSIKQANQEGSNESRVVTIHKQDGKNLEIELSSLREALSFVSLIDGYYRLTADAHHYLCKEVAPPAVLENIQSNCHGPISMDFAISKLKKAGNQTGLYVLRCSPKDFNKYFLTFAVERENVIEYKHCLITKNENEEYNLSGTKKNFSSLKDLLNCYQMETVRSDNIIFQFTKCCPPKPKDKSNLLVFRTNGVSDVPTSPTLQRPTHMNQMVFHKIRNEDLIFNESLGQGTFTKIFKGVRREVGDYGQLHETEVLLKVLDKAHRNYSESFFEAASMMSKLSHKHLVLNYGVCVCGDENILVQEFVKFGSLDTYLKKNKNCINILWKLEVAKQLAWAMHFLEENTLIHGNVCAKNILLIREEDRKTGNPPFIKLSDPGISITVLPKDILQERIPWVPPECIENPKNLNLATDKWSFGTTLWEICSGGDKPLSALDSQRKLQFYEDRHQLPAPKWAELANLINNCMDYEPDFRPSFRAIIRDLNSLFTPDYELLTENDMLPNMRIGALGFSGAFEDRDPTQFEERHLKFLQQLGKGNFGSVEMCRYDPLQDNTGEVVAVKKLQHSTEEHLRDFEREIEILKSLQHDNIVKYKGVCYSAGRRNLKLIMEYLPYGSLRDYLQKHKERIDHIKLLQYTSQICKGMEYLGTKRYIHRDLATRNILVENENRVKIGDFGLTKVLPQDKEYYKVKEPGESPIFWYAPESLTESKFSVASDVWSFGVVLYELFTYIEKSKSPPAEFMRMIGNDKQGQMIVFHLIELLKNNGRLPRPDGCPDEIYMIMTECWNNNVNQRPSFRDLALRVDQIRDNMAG
Casein kinase I isoform alpha (Homo sapiens), sequence (P48729 2-337 limits assumed): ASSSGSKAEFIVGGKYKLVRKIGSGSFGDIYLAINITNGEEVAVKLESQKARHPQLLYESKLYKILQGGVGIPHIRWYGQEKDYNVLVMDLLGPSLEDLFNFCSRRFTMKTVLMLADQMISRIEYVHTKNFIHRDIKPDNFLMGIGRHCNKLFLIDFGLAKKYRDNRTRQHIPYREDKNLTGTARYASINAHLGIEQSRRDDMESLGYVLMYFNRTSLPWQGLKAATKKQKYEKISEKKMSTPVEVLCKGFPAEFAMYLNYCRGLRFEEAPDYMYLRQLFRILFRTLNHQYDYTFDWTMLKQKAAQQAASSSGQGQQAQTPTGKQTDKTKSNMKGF
Cyclin-dependent kinase 8 (Homo sapiens), sequence (P49336 whole entry, canonical isoform): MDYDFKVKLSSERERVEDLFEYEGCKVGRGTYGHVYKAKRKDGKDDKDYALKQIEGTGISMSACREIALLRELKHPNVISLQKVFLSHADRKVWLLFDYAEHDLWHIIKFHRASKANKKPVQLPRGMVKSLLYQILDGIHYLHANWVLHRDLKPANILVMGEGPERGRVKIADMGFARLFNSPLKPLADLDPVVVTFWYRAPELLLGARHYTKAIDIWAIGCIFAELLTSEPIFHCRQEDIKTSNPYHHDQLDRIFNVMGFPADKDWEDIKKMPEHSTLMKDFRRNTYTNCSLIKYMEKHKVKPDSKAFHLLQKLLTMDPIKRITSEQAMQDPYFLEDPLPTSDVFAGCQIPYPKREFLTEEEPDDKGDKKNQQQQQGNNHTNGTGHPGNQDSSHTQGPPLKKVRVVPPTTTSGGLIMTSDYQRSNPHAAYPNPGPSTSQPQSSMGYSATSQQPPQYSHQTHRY
Activin receptor type-1-like (Homo sapiens), sequence (P37023 whole entry): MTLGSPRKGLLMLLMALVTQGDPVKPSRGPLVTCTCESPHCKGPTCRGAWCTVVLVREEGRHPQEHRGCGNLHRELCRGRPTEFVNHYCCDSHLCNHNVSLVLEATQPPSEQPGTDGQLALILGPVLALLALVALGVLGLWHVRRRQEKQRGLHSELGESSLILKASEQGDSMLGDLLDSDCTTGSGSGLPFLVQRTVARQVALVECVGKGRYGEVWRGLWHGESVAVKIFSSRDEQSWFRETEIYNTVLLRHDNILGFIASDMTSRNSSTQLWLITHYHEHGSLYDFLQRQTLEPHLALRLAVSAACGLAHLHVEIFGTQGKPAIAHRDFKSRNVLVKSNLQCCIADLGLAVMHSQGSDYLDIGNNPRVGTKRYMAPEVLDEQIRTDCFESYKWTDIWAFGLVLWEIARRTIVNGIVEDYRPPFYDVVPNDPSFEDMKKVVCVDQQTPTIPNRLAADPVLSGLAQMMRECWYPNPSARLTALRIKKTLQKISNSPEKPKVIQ

SMILES	Activity [1] [%]	Activity [2] [%]	Activity [3] [%]	Activity [4] [%]	Activity [5] [%]	Activity [6] [%]	Activity [7] [%]	Activity [8] [%]	Activity [9] [%]	Activity [10] [%]	Activity [11] [%]	Activity [12] [%]	Activity [13] [%]	Activity [14] [%]	Activity [15] [%]
COc1cc2nc(C)nc(N[C@H](C)c3cccc(-c4cn[nH]c4)c3)c2cc1OC	99	92	91	76	100	90	74	100	100	87	60	74	70	78	97
COc1cc2ncnc(N[C@H](C)c3cccc4ccccc34)c2cc1OC	100	100	93	96	100	100	89	56	100	86	100	93	100	95	99
